The values that follow are results of earlier work, collected in patent US20130204238A1, “COMBINATION THERAPY” (FOLLICA, INC, priority 2010, published 2013).

In the data set the target is GSK3β (Homo sapiens, UniProt P49841). To be noted: compared with other indirubin derivatives.
Sequence of GSK3β (P49841 whole entry, species assumed): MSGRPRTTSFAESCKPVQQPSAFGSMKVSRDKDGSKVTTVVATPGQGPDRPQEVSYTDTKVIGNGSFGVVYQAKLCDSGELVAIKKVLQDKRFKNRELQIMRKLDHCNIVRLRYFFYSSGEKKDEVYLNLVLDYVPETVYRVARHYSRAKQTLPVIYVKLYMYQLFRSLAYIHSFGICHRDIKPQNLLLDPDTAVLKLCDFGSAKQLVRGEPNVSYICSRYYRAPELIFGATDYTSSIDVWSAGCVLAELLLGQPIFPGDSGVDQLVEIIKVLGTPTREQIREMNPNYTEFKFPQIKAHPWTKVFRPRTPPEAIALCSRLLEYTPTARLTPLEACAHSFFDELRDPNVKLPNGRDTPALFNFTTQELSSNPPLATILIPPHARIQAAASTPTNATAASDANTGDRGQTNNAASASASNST

Consider indirubin 3′-monoxime, for which the pharmacological properties entry is “better pharmacological properties”. As to `O=C1Nc2ccc(Cl)cc2/C1=C1/Nc2ccccc2C1=O` [5-chloroindirubin], the pharmacological properties result is on record as “better pharmacological properties” and the toxicity result was “reduced toxicity”.
